Test results published in US4820695A, “C-20-dihydro-deoxy-(cyclic amino)-derivatives of macrolide antibiotics” (priority 1987, dated 1989).
Values after ≈ are worked out from the molar mass of the structure shown. Like-named read-outs stand apart in the source and are kept apart here.

Columns and labels:
Staphyloccus aureus X1.1 = test: MIC, standard agar-dilution assay (Table IX); format: cell-based, Staphylococcus aureus; conditions: Staphylococcus aureus, read-out: MIC
[1] = system: Staphylococcus aureus V41; test: MIC, standard agar-dilution assay (Table IX); format: cell-based; conditions: Staphylococcus aureus V41, Penicillin-resistant strain, read-out: MIC
[2] = system: Staphylococcus aureus X400; test: MIC, standard agar-dilution assay (Table IX); format: cell-based; conditions: Staphylococcus aureus X400, Methicillin-resistant strain, read-out: MIC
[3] = system: Staphylococcus aureus S13E; test: MIC, standard agar-dilution assay (Table IX); format: cell-based; conditions: Staphylococcus aureus, S13E
[4] = system: Staphylococcus epidermidis EPI1; test: MIC, standard agar-dilution assay (Table IX); format: cell-based
[5] = system: Staphylococcus epidermidis 222; test: MIC, standard agar-dilution assay (Table IX); format: cell-based; conditions: read-out: MIC
[6] = system: Streptococcus pyogenes C203; test: MIC, standard agar-dilution assay (Table IX); format: cell-based; conditions: read-out: MIC
[7] = system: Streptococcus pneumoniae Park I; test: MIC, standard agar-dilution assay (Table IX); format: cell-based
[8] = system: Streptococcus Group D X66; test: MIC, standard agar-dilution assay (Table IX); format: cell-based; conditions: read-out: MIC
[9] = system: Streptococcus Group D 2041; test: MIC, standard agar-dilution assay (Table IX); format: cell-based; conditions: GROUPD2041, read-out: MIC
[10] = system: Haemophilus influenzae C.L.; test: MIC, standard agar-dilution assay (Table IX); format: cell-based; conditions: Ampicillin-sensitive strain, read-out: MIC
[11] = system: Haemophilus influenzae 76; test: MIC, standard agar-dilution assay (Table IX); format: cell-based; conditions: Haemophilus influenzae 76, Ampicillin-resistant strain, read-out: MIC
Escherichia coli N10 = test: MIC, standard agar-dilution assay (Table IX); format: cell-based; conditions: read-out: MIC
Escherichia coli EC14 = test: MIC, standard agar-dilution assay (Table IX); format: cell-based; conditions: read-out: MIC
Escherichia coli TEM = test: MIC, standard agar-dilution assay (Table IX); format: cell-based; conditions: read-out: MIC
Klebsiella X26 = test: MIC, standard agar-dilution assay (Table IX); format: cell-based; conditions: read-out: MIC
[12] = system: Mycoplasma gallisepticum 29C; test: MIC, broth-dilution microtiter test (Table X); format: cell-based; conditions: Mycoplasmoides gallisepticum, read-out: MIC
Source text: (§1) The MIC's in Table X were obtained using conventional broth-dilution microtiter tests.

[13] = system: Mycoplasma hyopneumoniae S5972; test: MIC, broth-dilution microtiter test (Table X); format: cell-based; conditions: Mesomycoplasma hyopneumoniae, read-out: MIC
Source text: as §1

Mycoplasma hyorhinis 29E = test: MIC, broth-dilution microtiter test (Table X); format: cell-based; conditions: read-out: MIC
Source text: as §1

Mycoplasma synoviae 40A = test: MIC, broth-dilution microtiter test (Table X); format: cell-based; conditions: Mycoplasmopsis synoviae, read-out: MIC
Source text: as §1

[14] = system: Pasteurella hemolytica 22C; test: MIC, broth-dilution microtiter test (Table X); format: cell-based; conditions: read-out: MIC
Source text: as §1

[15] = system: Pasteurella multocida 17E; test: MIC, broth-dilution microtiter test (Table X); format: cell-based; conditions: Bovine isolate, read-out: MIC
Source text: as §1

[16] = system: Pasteurella multocida 60A; test: MIC, broth-dilution microtiter test (Table X); format: cell-based; conditions: Avian isolate, read-out: MIC
Source text: as §1

Staphylococcus aureus = test: MIC, broth-dilution microtiter test (Table X); format: cell-based; conditions: read-out: MIC
Source text: as §1

Streptococcus sp. 19F = test: MIC, broth-dilution microtiter test (Table X); format: cell-based; conditions: read-out: MIC
Source text: as §1

[17] = system: Streptococcus pyogenes C203; test: ED50 in mice experimentally infected with S. pyogenes C203 (Table XI); format: in vivo; conditions: doses given 1 and 4 hours postinfection
Experimental: The C-20 modified derivatives of this invention have shown in vivo antimicrobial activity against experimentally-induced infections in laboratory animals. When two doses of test compound were administered to mice experimentally infected with S. pyogenes C203, the activity observed was measured as an ED50 value [effective dose in mg/kg to protect 50% of the test animals: see Warren Wick, et al., J. Bacteriol. 81, 233-235 (1961)].
^a mg/kg × 2; doses given 1 and 4 hours postinfection

[18] = Staphylococcus epidermidis EPI1, agar-dilution, read-out: MIC
[19] = Streptococcus pneumoniae Park I, agar-dilution, read-out: MIC
[20] = Streptococcus pyogenes, C203, Oral, read-out: ED50
[21] = Streptococcus pyogenes, C203, sc, Subcutaneous, read-out: ED50

Row | SMILES | MIC (Staphyloccus aureus X1.1) [µg/mL] | MIC [1] [µg/mL] | MIC [2] [µg/mL] | MIC [3] [µg/mL] | MIC [4, 18] [µg/mL] | MIC [5] [µg/mL] | MIC [6] [µg/mL] | MIC [7, 19] [µg/mL] | MIC [8] [µg/mL] | MIC [9] [µg/mL] | MIC [10] [µg/mL] | MIC [11] [µg/mL] | MIC (Escherichia coli N10) [µg/mL] | MIC (Escherichia coli EC14) [µg/mL] | MIC (Escherichia coli TEM) [µg/mL] | MIC (Klebsiella X26) [µg/mL] | MIC [12] [µg/mL] | MIC [13] [µg/mL] | MIC (Mycoplasma hyorhinis 29E) [µg/mL] | MIC (Mycoplasma synoviae 40A) [µg/mL] | other results
1 | CCC1OC(=O)CC(O)C(C)C(OC2OC(C)CC(N(C)C)C2O)C(CCN2CCCCCC2)CC(C)C(=O)C=CC(C)=CC1COC1OC(C)C(O)C(OC)C1OC (stereo not drawn) [Compound D5a, 20-DH-DO-20-(Hexahydroazepin-1-yl)-4'-deoxydesmycosin] | 0.5 (≈ 0.596 µM) | 0.5 (≈ 0.596 µM) | 1 (≈ 1.19 µM) | 0.5 (≈ 0.596 µM) | 0.5 (≈ 0.596 µM) | 0.25 (≈ 0.298 µM) | 0.25 (≈ 0.298 µM) | 0.25 (≈ 0.298 µM) | 2 (≈ 2.38 µM) | 2 (≈ 2.38 µM) | 8 (≈ 9.53 µM) | 8 (≈ 9.53 µM) | 64 (≈ 76.3 µM) | 128 (≈ 153 µM) | 8 (≈ 9.53 µM) | 8 (≈ 9.53 µM) | 0.78 (≈ 0.93 µM) | 0.195 (≈ 0.232 µM) | 3.12 (≈ 3.72 µM) | 0.195 (≈ 0.232 µM) | MIC [14]: 3.12 µg/mL (≈ 3.72 µM); MIC [15]: 6.25 µg/mL (≈ 7.45 µM); MIC [16]: 3.12 µg/mL (≈ 3.72 µM); MIC (Staphylococcus aureus): 0.39 µg/mL (≈ 0.465 µM); MIC (Streptococcus sp. 19F): 0.78 µg/mL (≈ 0.93 µM); ED50 [17, 20]: 34 mg/kg; ED50 [17, 21]: 1.5 mg/kg
2 | CCC1OC(=O)CC(O)C(C)C(OC2OC(C)C(O)C(N(C)C)C2O)C(CCN2CC(C)CC(C)C2)CC(C)C(=O)C=CC(C)=CC1COC1OC(C)C(O)C(OC)C1OC (racemic) [Compound D35] |  |  |  |  |  |  |  |  |  |  |  |  |  |  |  |  |  |  |  |  | ED50 ([17]; Oral): 10.93 mg/kg × 2; ED50 ([17]; Subcutaneous): 0.88 mg/kg × 2
3 | CCC1OC(=O)CC(O)C(C)C(OC2OC(C)C(O)C(N(C)C)C2O)C(CCN2CCCC(C)(C)C2)CC(C)C(=O)C=CC(C)=CC1COC1OC(C)C(O)C(OC)C1OC (stereo not drawn) [Compound D40, 20-DH-DO-20-(3,3-dimethylpiperidin-1-yl)desmycosin] | 0.5 (≈ 0.575 µM) | 0.5 (≈ 0.575 µM) | 0.5 (≈ 0.575 µM) | 0.5 (≈ 0.575 µM) | 0.5 (≈ 0.575 µM) | 0.25 (≈ 0.288 µM) | 0.25 (≈ 0.288 µM) | 2 (≈ 2.3 µM) | 4 (≈ 4.6 µM) | 8 (≈ 9.2 µM) | 4 (≈ 4.6 µM) | 8 (≈ 9.2 µM) | 64 (≈ 73.6 µM) | 64 (≈ 73.6 µM) | 16 (≈ 18.4 µM) | 16 (≈ 18.4 µM) |  |  |  |  | 
4 | CCC1OC(=O)CC(O)C(C)C(OC2OC(C)C(OC3CC(C)(O)C(O)C(C)O3)C(N(C)C)C2O)C(CCN2CCCCCCC2)CC(C)C(=O)C=CC(C)=CC1COC1OC(C)C(O)C(OC)C1OC (stereo not drawn) [Compound T6, 20-DH-DO-20-(octahydroazocin-1-yl)tylosin] | 4 (≈ 3.95 µM) | 4 (≈ 3.95 µM) | 8 (≈ 7.89 µM) | 4 (≈ 3.95 µM) | 4 (≈ 3.95 µM) | 2 (≈ 1.97 µM) | 2 (≈ 1.97 µM) | 8 (≈ 7.89 µM) | > 128 | > 128 | 64 (≈ 63.2 µM) | > 128 | > 128 | > 128 | > 128 | > 128 | 3.12 (≈ 3.08 µM) | 12.5 (≈ 12.3 µM) | > 50 | 0.78 (≈ 0.77 µM) | MIC [14]: 50 µg/mL (≈ 49.3 µM); MIC [15]: > 50 µg/mL; MIC [16]: > 50 µg/mL; MIC (Staphylococcus aureus): 12.5 µg/mL (≈ 12.3 µM); MIC (Streptococcus sp. 19F): 50 µg/mL (≈ 49.3 µM); ED50 [17, 20]: 44 mg/kg; ED50 [17, 21]: > 10 mg/kg
5 | CCC1OC(=O)CC(O)C(C)C(OC2OC(C)C(OC3CC(C)(O)C(O)C(C)O3)C(N(C)C)C2O)C(CCN2CC3CCC(CC3)C2)CC(C)C(=O)C=CC(C)=CC1COC1OC(C)C(O)C(OC)C1OC (stereo not drawn) [Compound T13, 20-DH-DO-20-(3-azabicyclo[3.2.2]nonan-3-yl)tylosin] | 4 (≈ 3.9 µM) | 4 (≈ 3.9 µM) | 8 (≈ 7.8 µM) | 4 (≈ 3.9 µM) |  | 2 (≈ 1.95 µM) | 4 (≈ 3.9 µM) |  | 128 (≈ 125 µM) | > 128 | 128 (≈ 125 µM) | 128 (≈ 125 µM) | > 128 | > 128 | > 128 | > 128 | 1.56 (≈ 1.52 µM) | 25 (≈ 24.4 µM) | > 50 | 1.56 (≈ 1.52 µM) | MIC ([4]; Staphylococcus epidermidis, EPI1): 4 µg/mL (≈ 3.9 µM); MIC ([7]; Streptococcus pneumoniae): 16 µg/mL (≈ 15.6 µM); MIC [14]: 50 µg/mL (≈ 48.8 µM); MIC [15]: > 50 µg/mL; MIC [16]: > 50 µg/mL; MIC (Staphylococcus aureus): 6.25 µg/mL (≈ 6.1 µM); MIC (Streptococcus sp. 19F): 50 µg/mL (≈ 48.8 µM); ED50 [17, 20]: 30 mg/kg; ED50 [17, 21]: > 10 mg/kg
